Test results as given in the supplement of paper PMC10307832.

Assays:
Test in all cases: relative viability (nuclei count vs DMSO), 5 days (fraction); higher = more cells survive
BMX-IN-1 + Alpelisib = compound: C=CC(=O)Nc1cc(-n2c(=O)ccc3cnc4ccc(-c5ccc(NS(C)(=O)=O)cc5)cc4c32)ccc1C [BMX-IN-1] + Cc1nc(NC(=O)N2CCC[C@H]2C(N)=O)sc1-c1ccnc(C(C)(C)C(F)(F)F)c1 [Alpelisib] (partner 2 µM)
In short: (§1)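 One day after seeding in 1536-well plates, lung cancer cell lines were dosed by pin tool. Dosing was either single-drug or a fixed anchor-drug dose plus five library-drug doses (not always all listed) in √10 steps. After 5 days, nuclei were stained in one fix-and-stain step and counted on 4× images, and relative viability is the nuclei count of treated wells over that of vehicle wells, given as the median of duplicate plates.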

PAC-1 + Tozasertib = compound: C=CCc1cccc(/C=N/NC(=O)CN2CCN(Cc3ccccc3)CC2)c1O [PAC-1] + Cc1cc(Nc2cc(N3CCN(C)CC3)nc(Sc3ccc(NC(=O)C4CC4)cc3)n2)n[nH]1 [Tozasertib] (partner 0.1 µM)
In short: as §1

PAC-1 + Dasatinib = compound: C=CCc1cccc(/C=N/NC(=O)CN2CCN(Cc3ccccc3)CC2)c1O [PAC-1] + Cc1nc(Nc2ncc(C(=O)Nc3c(C)cccc3Cl)s2)cc(N2CCN(CCO)CC2)n1 [Dasatinib] (partner 0.075 µM)
In short: as §1

BMX-IN-1 + Pemetrexed = compound: C=CC(=O)Nc1cc(-n2c(=O)ccc3cnc4ccc(-c5ccc(NS(C)(=O)=O)cc5)cc4c32)ccc1C [BMX-IN-1] + Nc1nc2[nH]cc(CCc3ccc(C(=O)N[C@@H](CCC(=O)O)C(=O)O)cc3)c2c(=O)[nH]1 [Pemetrexed] (partner 0.2 µM)
In short: as §1

BMX-IN-1 + Vorinostat = compound: C=CC(=O)Nc1cc(-n2c(=O)ccc3cnc4ccc(-c5ccc(NS(C)(=O)=O)cc5)cc4c32)ccc1C [BMX-IN-1] + O=C(CCCCCCC(=O)Nc1ccccc1)NO [Vorinostat] (partner 1 µM)
In short: as §1

Row | Cell Line | relative viability (BMX-IN-1 + Alpelisib; first compound 0.02 µM) | relative viability (BMX-IN-1 + Alpelisib; first compound 0.2 µM) | relative viability (BMX-IN-1 + Alpelisib; first compound 0.6325 µM) | relative viability (BMX-IN-1 + Alpelisib; first compound 2 µM) | relative viability (PAC-1 + Tozasertib; first compound 0.02 µM) | relative viability (PAC-1 + Tozasertib; first compound 0.06325 µM) | relative viability (PAC-1 + Tozasertib; first compound 0.2 µM) | relative viability (PAC-1 + Tozasertib; first compound 2 µM) | relative viability (PAC-1 + Dasatinib; first compound 0.02 µM) | relative viability (PAC-1 + Dasatinib; first compound 0.06325 µM) | relative viability (PAC-1 + Dasatinib; first compound 0.2 µM) | relative viability (PAC-1 + Dasatinib; first compound 2 µM) | relative viability (BMX-IN-1 + Pemetrexed; first compound 0.02 µM) | relative viability (BMX-IN-1 + Pemetrexed; first compound 0.2 µM) | relative viability (BMX-IN-1 + Pemetrexed; first compound 0.6325 µM) | relative viability (BMX-IN-1 + Pemetrexed; first compound 2 µM) | relative viability (BMX-IN-1 + Vorinostat; first compound 0.02 µM) | relative viability (BMX-IN-1 + Vorinostat; first compound 0.2 µM) | relative viability (BMX-IN-1 + Vorinostat; first compound 0.6325 µM) | relative viability (BMX-IN-1 + Vorinostat; first compound 2 µM)
1 | NCI-H1975 | 0.714 | 0.686 | 0.664 | 0.592 | 0.76 | 0.824 | 0.748 | 0.729 | 0.358 | 0.363 | 0.336 | 0.347 | 0.321 | 0.312 | 0.29 | 0.279 | 0.707 | 0.754 | 0.737 | 0.703
2 | NCI-H1993 | 0.811 | 0.752 | – | 0.668 | 0.635 | 0.541 | 0.469 | 0.548 | 0.65 | 0.611 | 0.421 | 0.483 | 0.65 | 0.669 | 0.645 | 0.622 | 0.767 | 0.9 | 0.85 | 0.898
3 | NCI-H2009 | 1.05 | 1.33 | 1.25 | 1.18 | 0.816 | 0.715 | 0.698 | 0.696 | 0.267 | 0.305 | 0.291 | 0.334 | 1.08 | 1.06 | 1.09 | 1.07 | 0.782 | 0.798 | 0.746 | 0.839
4 | NCI-H2023 | 0.617 | 0.675 | 0.686 | 0.627 | 0.404 | 0.355 | 0.382 | 0.347 | 0.553 | 0.615 | 0.42 | 0.55 | 0.285 | 0.304 | 0.226 | 0.26 | 0.726 | 0.742 | 0.654 | 0.105
5 | NCI-H2085 | 0.944 | 0.981 | 0.834 | 0.917 | 0.787 | 0.81 | 0.797 | 0.796 | 0.225 | 0.234 | 0.285 | 0.213 | 0.968 | 0.823 | 0.923 | 0.909 | 0.816 | 0.771 | 0.821 | 0.831
6 | NCI-H2087 | 1.12 | 1.28 | 1.32 | 1.24 | 0.197 | 0.252 | 0.281 | 0.259 | 0.915 | 0.848 | 0.798 | 0.78 | 0.725 | 0.715 | 0.669 | 0.625 | 0.66 | 1.12 | 0.837 | 0.575
7 | NCI-H2126 | 0.763 | 0.748 | 0.827 | 0.77 | 0.919 | 0.829 | 0.82 | 0.821 | 0.615 | 0.584 | 0.642 | 0.615 | 0.777 | 0.7 | 0.705 | 0.721 | 0.829 | 0.697 | 0.864 | 0.786
8 | NCI-H2170 | 0.91 | 0.859 | 0.921 | 0.821 | 0.693 | 0.776 | 0.805 | 0.712 | 0.499 | 0.506 | 0.625 | 0.712 | 0.273 | 0.285 | 0.319 | 0.243 | 0.724 | 1.06 | 0.79 | 0.849
